Format in all cases: functional, cell-based
In data set [1] the target is T1, Solute carrier organic anion transporter family member 1A5 (Rattus norvegicus, UniProt O88397).
T1 sequence (O88397 whole entry): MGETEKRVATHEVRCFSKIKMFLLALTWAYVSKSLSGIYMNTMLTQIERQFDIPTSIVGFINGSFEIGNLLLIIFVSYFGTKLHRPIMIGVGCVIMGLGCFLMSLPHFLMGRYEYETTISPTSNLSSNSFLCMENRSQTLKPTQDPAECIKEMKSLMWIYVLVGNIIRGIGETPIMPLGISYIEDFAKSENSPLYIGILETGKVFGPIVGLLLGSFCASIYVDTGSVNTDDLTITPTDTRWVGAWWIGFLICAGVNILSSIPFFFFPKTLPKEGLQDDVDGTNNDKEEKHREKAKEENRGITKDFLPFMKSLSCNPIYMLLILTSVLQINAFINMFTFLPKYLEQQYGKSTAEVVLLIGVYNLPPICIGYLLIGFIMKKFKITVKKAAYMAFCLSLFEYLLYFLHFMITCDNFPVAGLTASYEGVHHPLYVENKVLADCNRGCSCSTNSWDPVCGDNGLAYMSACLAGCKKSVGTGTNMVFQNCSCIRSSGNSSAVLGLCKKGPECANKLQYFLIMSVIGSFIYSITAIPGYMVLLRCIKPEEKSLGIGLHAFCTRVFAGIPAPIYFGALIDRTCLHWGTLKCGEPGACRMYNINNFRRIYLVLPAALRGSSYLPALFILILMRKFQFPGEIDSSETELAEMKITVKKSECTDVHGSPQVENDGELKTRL
As to the kind of experiment: TP_TRANSPORTER: inhibition of Taurocholate uptake (Taurocholate: 10 uM, DIDS: 1000 uM) in Oatp3-expressing MDCK cells. The following applies: dog.

Data set [2] has as its target T2, Ileal sodium/bile acid cotransporter (Rattus norvegicus, UniProt Q62633).
T2 sequence (Q62633 whole entry): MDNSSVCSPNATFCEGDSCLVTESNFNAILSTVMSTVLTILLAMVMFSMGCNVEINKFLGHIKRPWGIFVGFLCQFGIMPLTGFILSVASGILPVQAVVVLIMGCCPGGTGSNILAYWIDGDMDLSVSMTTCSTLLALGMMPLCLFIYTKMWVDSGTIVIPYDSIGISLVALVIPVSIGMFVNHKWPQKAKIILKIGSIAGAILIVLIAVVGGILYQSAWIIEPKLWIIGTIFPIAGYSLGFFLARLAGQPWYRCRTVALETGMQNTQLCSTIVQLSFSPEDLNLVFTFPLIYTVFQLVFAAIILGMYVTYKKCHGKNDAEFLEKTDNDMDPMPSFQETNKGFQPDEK
Briefly: TP_TRANSPORTER: uptake in ASBT-expressing COS cells. The following applies: monkey.

Data set [3] concerns the target T1, Solute carrier organic anion transporter family member 1A5. As to the kind of experiment: TP_TRANSPORTER: uptake in Oatp3-expressing COS cells. The following applies: monkey.
Substrate in data set [4]: C[C@H](CCC(=O)NCC(=O)O)[C@H]1CC[C@H]2[C@@H]3CC[C@@H]4C[C@H](O)CC[C@]4(C)[C@H]3C[C@H](O)[C@]12C
Briefly: (§1) TP_TRANSPORTER: uptake in Oatp3-expressing MDCK cells.

Substrate in data set [5]: C[C@H](CCC(=O)NCC(=O)O)[C@H]1CC[C@H]2[C@@H]3[C@@H](O)C[C@@H]4C[C@H](O)CC[C@]4(C)[C@H]3CC[C@]12C
The data set is described as §1.

Substrate in data set [6]: C[C@H](CCC(=O)NCC(=O)O)[C@H]1CC[C@H]2[C@@H]3[C@H](O)C[C@@H]4C[C@H](O)CC[C@]4(C)[C@H]3CC[C@]12C
Described as §1.

Substrate in data set [7]: C[C@H](CCC(=O)NCC(=O)O)[C@H]1CC[C@H]2[C@@H]3[C@H](O)C[C@@H]4C[C@H](O)CC[C@]4(C)[C@H]3C[C@H](O)[C@]12C
The data set is described as §1.

Substrate in data set [8]: C[C@H](CCC(=O)NCCS(=O)(=O)O)[C@H]1CC[C@H]2[C@@H]3CC[C@@H]4C[C@H](O)CC[C@]4(C)[C@H]3C[C@H](O)[C@]12C
The description is as §1.

Substrate in data set [9]: C[C@H](CCC(=O)NCCS(=O)(=O)O)[C@H]1CC[C@H]2[C@@H]3[C@@H](O)C[C@@H]4C[C@H](O)CC[C@]4(C)[C@H]3CC[C@]12C
Described as §1.

Substrate in data set [10]: C[C@H](CCC(=O)NCCS(=O)(=O)O)[C@H]1CC[C@H]2[C@@H]3[C@H](O)C[C@@H]4C[C@H](O)CC[C@]4(C)[C@H]3CC[C@]12C
Described as §1.

In the case of `O=S(=O)(O)c1cc(N=C=S)ccc1/C=C/c1ccc(NC=S)cc1S(=O)(=O)O`, the Activity entry in [1] is “inhibitor [(at a rough estimate) 15 % of control]”.
As for `C[C@H](CCC(=O)NCC(=O)O)[C@H]1CC[C@H]2[C@@H]3[C@H](O)C[C@@H]4C[C@H](O)CC[C@]4(C)[C@H]3CC[C@]12C` [GLYCOCHENODEOXYCHOLATE], the Activity result in data set [2] and in [3] was “substrate [+]” in each case.
As for `C[C@H](CCC(=O)NCC(=O)O)[C@H]1CC[C@H]2[C@@H]3[C@H](O)C[C@@H]4C[C@H](O)CC[C@]4(C)[C@H]3C[C@H](O)[C@]12C` [GLYCOCHOLIC ACID], the Activity result in data set [2] and in data set [3] was “substrate [+]” each time.
On to `C[C@H](CCC(=O)NCC(=O)O)[C@H]1CC[C@H]2[C@@H]3CC[C@@H]4C[C@H](O)CC[C@]4(C)[C@H]3C[C@H](O)[C@]12C` [GLYCODEOXYCHOLATE], for which the Activity entry in [2] and in [3] was “substrate [+]” each time.
In the case of `C[C@H](CCC(=O)NCC(=O)O)[C@H]1CC[C@H]2[C@@H]3[C@@H](O)C[C@@H]4C[C@H](O)CC[C@]4(C)[C@H]3CC[C@]12C` [GLYCOURSODEOXYCHOLIC ACID], the Activity entry in data set [2] and in data set [3] was “substrate [+]” in each case.
In the case of `C[C@H](CCC(=O)NCCS(=O)(=O)O)[C@H]1CC[C@H]2[C@@H]3[C@H](O)C[C@@H]4C[C@H](O)CC[C@]4(C)[C@H]3CC[C@]12C` [TAUROCHENODEOXYCHOLATE], the Activity entry in data set [2] and in data set [3] was “substrate [+]” in each case.
With `C[C@H](CCC(=O)NCCS(=O)(=O)O)[C@H]1CC[C@H]2[C@@H]3CC[C@@H]4C[C@H](O)CC[C@]4(C)[C@H]3C[C@H](O)[C@]12C` [TAURODEOXYCHOLIC ACID], the Activity entry in [2] and in data set [3] was “substrate [+]” each time.
Consider `C[C@H](CCC(=O)NCCS(=O)(=O)O)[C@H]1CC[C@H]2[C@@H]3[C@@H](O)C[C@@H]4C[C@H](O)CC[C@]4(C)[C@H]3CC[C@]12C` [TAURURSODIOL], for which the Activity result in [2] and in data set [3] was “substrate [+]” in each case.

B1: Solute carrier organic anion transporter family member 1A5 (Rattus norvegicus) (protein)
chain: MGETEKRVATHEVRCFSKIKMFLLALTWAYVSKSLSGIYMNTMLTQIERQFDIPTSIVGFINGSFEIGNLLLIIFVSYFGTKLHRPIMIGVGCVIMGLGCFLMSLPHFLMGRYEYETTISPTSNLSSNSFLCMENRSQTLKPTQDPAECIKEMKSLMWIYVLVGNIIRGIGETPIMPLGISYIEDFAKSENSPLYIGILETGKVFGPIVGLLLGSFCASIYVDTGSVNTDDLTITPTDTRWVGAWWIGFLICAGVNILSSIPFFFFPKTLPKEGLQDDVDGTNNDKEEKHREKAKEENRGITKDFLPFMKSLSCNPIYMLLILTSVLQINAFINMFTFLPKYLEQQYGKSTAEVVLLIGVYNLPPICIGYLLIGFIMKKFKITVKKAAYMAFCLSLFEYLLYFLHFMITCDNFPVAGLTASYEGVHHPLYVENKVLADCNRGCSCSTNSWDPVCGDNGLAYMSACLAGCKKSVGTGTNMVFQNCSCIRSSGNSSAVLGLCKKGPECANKLQYFLIMSVIGSFIYSITAIPGYMVLLRCIKPEEKSLGIGLHAFCTRVFAGIPAPIYFGALIDRTCLHWGTLKCGEPGACRMYNINNFRRIYLVLPAALRGSSYLPALFILILMRKFQFPGEIDSSETELAEMKITVKKSECTDVHGSPQVENDGELKTRL
As for B1, the Km in [4] is 4.3 µM; in data set [5], 5.3 µM; in [6] it was 5.6 µM; in [7] it was 15.4 µM; in data set [8] it was 5.8 µM; in data set [9], 6.6 µM. Also, in [10], the Michaelis constant (Km) is 7 µM.

The record behind these values is ChEMBL document CHEMBL2074318, “Expression, transport properties, and chromosomal location of organic anion transporter subtype 3” (Am J Physiol Gastrointest Liver Physiol, 2000).
